Assay results reported in PubChem BioAssay AID1053132 (The Scripps Research Institute Molecular Screening Center, 2014).
Calls of active or inactive are those of the source. The rule behind the calls is not given here.

Molecular target: methionyl-tRNA synthetase (Trypanosoma brucei brucei)
Assay: inhibition of trypanosomal methionyl-tRNA synthetase – biochemical, luminescence, dose response, round 3, late-stage follow-up (AID 1053132)
Conditions: recombinant T. brucei MetRS, luminescence (ATP consumption)

Compound	IC50
CCN(CC)C(=O)C(=O)c1cn(CC(=O)Nc2cc(Oc3ccc(F)cc3)cc(C(F)(F)F)c2)c2ccccc12	188 nM
CCN(CC)C(=O)C(=O)c1cn(CC(=O)Nc2cc(Oc3ccccc3OC)cc(C(F)(F)F)c2)c2ccccc12	161 nM
CCN(CC)C(=O)C(=O)c1cn(CC(=O)Nc2cc(Oc3ccccc3)cc(C(F)(F)F)c2)c2ccccc12	58.1 nM
CCN(CC)C(=O)C(=O)c1cn(CC(=O)Nc2cc(Oc3ccc(OC)cc3)cc(C(F)(F)F)c2)c2ccccc12	168 nM
O=C(Cc1ccc(Nc2nc3ccc(Br)cc3[nH]2)cc1)NCCc1cccs1	inactive
CCN(CC)C(=O)Cc1cn(CC(=O)Nc2cccc(C(F)(F)F)c2)c2ccccc12	> 119000 nM (inactive)
Nc1c(Cl)ncnc1Nc1ccc(C(=O)O)cc1	2540 nM
CCN(CC)C(=O)C(=O)c1cn(CC(=O)Nc2cc(Oc3ccccc3F)cc(C(F)(F)F)c2)c2ccccc12	133 nM
CCN(CC)C(=O)C(=O)c1cn(CC(=O)Nc2cccc(C(F)(F)F)c2)c2ccccc12	128 nM
CCN(CC)C(=O)C(=O)c1cn(CCNc2cccc(C(F)(F)F)c2)c2ccccc12	> 119000 nM (inactive)
CCN(CC)C(=O)C(=O)c1cn(CCNc2cc(Oc3ccccc3)cc(C(F)(F)F)c2)c2ccccc12	inactive
O=C(Cn1cc(C(=O)C(=O)NCc2ccccc2)c2ccccc21)Nc1cc(Oc2ccccc2)cc(C(F)(F)F)c1	inactive
